11 molecules from EP4700018A1, “NAV1.8 INHIBITORS, PREPARATION METHOD THEREFOR AND USE THEREOF” (Shanghai Institute of Materia Medica, Chinese Academy of …, priority 2023, dated 2024) can be followed below.

For one assay, the target named is human Nav1.8 sodium channel (Homo sapiens, UniProt Q9Y5Y9). The assay is described as follows: Blocking activity on sodium channel 1.8 (Nav1.8), whole-cell manual patch clamp. The following applies: Nav1.8 channel current, HEK293 cells stably expressing human Nav1.8, clamped at -60 mV, mean ± SEM; read-out: IC50. The class given is cell-based. On the technique in general: In patch-clamp work, channel activity is measured electrically.
human Nav1.8 sodium channel, sequence (Q9Y5Y9 whole entry): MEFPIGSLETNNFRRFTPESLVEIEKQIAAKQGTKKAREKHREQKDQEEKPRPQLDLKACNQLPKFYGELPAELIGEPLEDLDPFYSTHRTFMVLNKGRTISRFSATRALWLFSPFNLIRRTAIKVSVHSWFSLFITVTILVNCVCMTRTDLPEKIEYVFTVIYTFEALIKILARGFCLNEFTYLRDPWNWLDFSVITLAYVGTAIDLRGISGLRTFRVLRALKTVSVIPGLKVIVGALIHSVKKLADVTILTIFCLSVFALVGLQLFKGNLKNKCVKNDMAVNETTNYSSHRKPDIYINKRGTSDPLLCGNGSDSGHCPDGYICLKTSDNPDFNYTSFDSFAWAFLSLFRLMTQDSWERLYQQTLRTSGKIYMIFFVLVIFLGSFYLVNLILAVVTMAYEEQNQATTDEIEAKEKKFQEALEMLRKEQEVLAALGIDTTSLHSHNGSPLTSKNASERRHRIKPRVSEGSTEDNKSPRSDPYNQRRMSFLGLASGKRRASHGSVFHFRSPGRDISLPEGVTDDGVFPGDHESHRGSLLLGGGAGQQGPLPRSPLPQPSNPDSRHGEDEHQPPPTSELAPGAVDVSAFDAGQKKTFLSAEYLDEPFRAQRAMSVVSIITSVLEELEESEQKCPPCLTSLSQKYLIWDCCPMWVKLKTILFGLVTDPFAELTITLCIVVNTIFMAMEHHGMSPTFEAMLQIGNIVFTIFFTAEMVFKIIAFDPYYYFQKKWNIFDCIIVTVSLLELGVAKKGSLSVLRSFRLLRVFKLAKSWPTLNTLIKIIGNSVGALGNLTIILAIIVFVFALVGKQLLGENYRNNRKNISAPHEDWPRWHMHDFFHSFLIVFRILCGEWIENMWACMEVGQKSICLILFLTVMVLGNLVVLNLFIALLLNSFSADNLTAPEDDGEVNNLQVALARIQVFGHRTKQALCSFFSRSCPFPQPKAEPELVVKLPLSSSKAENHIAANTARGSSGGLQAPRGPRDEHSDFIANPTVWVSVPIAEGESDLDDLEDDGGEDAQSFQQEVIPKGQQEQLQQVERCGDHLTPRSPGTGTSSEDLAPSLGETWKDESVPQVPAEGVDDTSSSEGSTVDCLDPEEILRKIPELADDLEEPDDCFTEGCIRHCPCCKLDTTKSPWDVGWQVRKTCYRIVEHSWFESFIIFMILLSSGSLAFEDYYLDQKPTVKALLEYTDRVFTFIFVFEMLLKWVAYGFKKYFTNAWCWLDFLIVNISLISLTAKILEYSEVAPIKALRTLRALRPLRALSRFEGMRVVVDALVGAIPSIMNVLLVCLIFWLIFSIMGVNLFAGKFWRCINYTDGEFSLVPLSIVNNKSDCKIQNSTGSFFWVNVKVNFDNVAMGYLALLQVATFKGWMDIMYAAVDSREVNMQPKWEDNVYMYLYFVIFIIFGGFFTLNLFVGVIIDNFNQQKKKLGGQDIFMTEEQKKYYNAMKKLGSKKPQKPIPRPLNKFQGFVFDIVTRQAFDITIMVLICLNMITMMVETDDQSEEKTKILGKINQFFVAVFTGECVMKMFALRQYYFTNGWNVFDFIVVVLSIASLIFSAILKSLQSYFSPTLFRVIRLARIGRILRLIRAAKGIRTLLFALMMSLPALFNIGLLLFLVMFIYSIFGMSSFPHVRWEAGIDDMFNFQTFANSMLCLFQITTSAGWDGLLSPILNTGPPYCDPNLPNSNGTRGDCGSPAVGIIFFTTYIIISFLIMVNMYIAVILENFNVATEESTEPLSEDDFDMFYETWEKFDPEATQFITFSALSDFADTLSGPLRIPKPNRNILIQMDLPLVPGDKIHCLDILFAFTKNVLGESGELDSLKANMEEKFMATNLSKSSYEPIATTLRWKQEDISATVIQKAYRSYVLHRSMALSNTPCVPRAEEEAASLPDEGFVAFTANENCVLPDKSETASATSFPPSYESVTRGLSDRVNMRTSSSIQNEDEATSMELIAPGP
As usually defined, the IC50 is the concentration that gives 50% inhibition. As to `Cc1nc(N2CCCC(F)(F)CC2)c(C(=O)Nc2cccc(C(=N)N)c2)cc1Cl` [Compound I-12, N-(3-amidinophenyl)-5-chloro-2-(4,4-difluoroazepan-1-yl)-6-methylnicotinamide], the IC50 came to 0.26 ± 0.06 nM.

The same assay, now with this note: read-out: inhibition Percent @1 nM, 1 nM compound.
In general, inhibition refers to the percentage by which the read-out fell short of the control. With `Cc1nc(N2CCC(F)(F)C(C)C2)c(C(=O)Nc2ccc(F)c(C(N)=NO)c2)cc1Cl` (single isomer, unassigned) [Compound I-41-P1, 5-chloro-2-(4,4-difluoro-3-methylpiperidin-1-yl)-N-(4-fluoro-3-(N'-hydroxyamidino)phenyl)-6-(methyl)nicotinamide], the inhibition at 0.001 µM worked out at 38%.

For `Cc1nc(N2CCCC(F)(F)CC2)c(C(=O)Nc2ccc(Cl)c(C(N)=NO)c2)cc1Cl` [Compound I-5, 5-chloro-2-(4,4-difluoroazepan-1-yl)-N-(4-chloro-3-(N'-hydroxyamidino)phenyl)-6-me thylnicotinamide], the inhibition at 0.001 µM was 82%. On the same count and under the same terms, then `CC1CN(c2nc(C(F)(F)F)c(Cl)cc2C(=O)Nc2ccc(F)c(C(N)=NO)c2)CCC1(F)F` (single isomer, unassigned) [Compound I-40-P1, 5-chloro-2-(4,4-difluoro-3-methylpiperidin-1-yl)-N-(4-fluoro-3-(N'-hydroxyamidino)phenyl)-6-(trifluoromethyl)nicotinamide], with 59%. On to `Cc1nc(N2CCCC(F)(F)CC2)c(C(=O)Nc2cccc(C(=N)N)c2)cc1Cl` [Compound I-12, N-(3-amidinophenyl)-5-chloro-2-(4,4-difluoroazepan-1-yl)-6-methylnicotinamide], for which the inhibition at 0.001 µM amounted to 73%.

With `CN(C)c1nc(N2CCCC(F)(F)CC2)c(C(=O)Nc2ccc(F)c(C(N)=NO)c2)cc1Cl` [Compound I-43, 5-chloro-2-(4,4-difluoroazepan-1-yl)-6-(dimethylamino)-N-(4-fluoro-3-(N'-hydroxyamidino)phenyl)nicotinamide], the inhibition at 0.001 µM came out at 55%. Same read-out and setting: the same measure for `CCc1nc(N2CCCC(F)(F)CC2)c(C(=O)Nc2ccc(F)c(C(N)=NO)c2)cc1Cl` [Compound I-45, 5-chloro-2-(4,4-difluoroazepan-1-yl)-6-ethyl-N-(4-fluoro-3-(N'-hydroxyamidino)pheny I)nicotinamide]: 94%. The same measure, in the same setting: the same measure for `Cc1nc(N2CCCC(F)(F)CC2)c(C(=O)Nc2ccc(F)c(C(=N)N)c2)cc1Cl` [Compound I-2, N-(3-amidino-4-fluorophenyl)-5-chloro-2-(4,4-difluoroazepan-1-yl)-6-methylnicotinamide]: 79%; for `Cc1nc(N2CCCC(F)(F)CC2)c(C(=O)Nc2ccc(Cl)c(C(=N)N)c2)cc1Cl` [Compound I-6, N-(3-amidino-4-chlorophenyl)-5-chloro-2-(4,4-difluoroazepan-1-yl)-6-methylnicotinamide]: 65%.

Staying with this assay, now noted: read-out: inhibition Percent @10 nM, 10 nM compound.
`Cc1nc(N2CCCC(F)(F)CC2)c(C(=O)Nc2ccc(F)c(C(N)=NO)c2)cc1C(F)(F)F` [Compound I-27, 2-(4,4-difluoroazepan-1-yl)-N-(4-fluoro-3-(N'-hydroxyamidino)phenyl)-6-methyl-5-(trifluoromethyl)nicotinamide]: the inhibition at 0.01 µM worked out at 83%. In the case of `NC(=NO)c1cccc(NC(=O)c2c(N3CCCC(F)(F)CC3)ccc(Cl)c2C(F)(F)F)c1` [Compound I-49, 5-chloro-2-(4,4-difluoroazepan-1-yl)-N-(3-(N'-hydroxyamidino)phenyl)-6-(trifluoromethyl)benzamide], the inhibition at 0.01 µM was 77%.

Still in this assay, the particulars now being: read-out: inhibition Percent @30 nM, 30 nM compound.
Take `Cc1nc(N2CCCCCC2)c(C(=O)Nc2cccc(C(=N)N)c2)cc1Cl` [Compound I-23, 2-(azepan-1-yl)-N-(3-amidinophenyl)-5-chloro-6-methylnicotinamide]: the inhibition at 0.03 µM came to 95%.
